Measurements as given in US9833497B2, “Human originated EGF domain proteins and use of the same” (CHENGDU SOURCEBIO LIMITED-LIABILITY COMPANY, priority 2013, dated 2017).

Assays:
Type in all cases: cell-based
Serratia marcescens = assay: MIC against Gram-negative bacteria: Serratia marcescens; conditions: 5×10^5 CFU/mL
Summary of the method: (§1)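 First, colonies from LB agar were grown in LB at 37° C, 185 rpm, to McFarland turbidity 0.5, then centrifuged and resuspended in fresh LB. Next, wells received 5×10^5 CFU/mL bacteria plus two-fold serially diluted EGF domain protein (triplicate). Finally, plates were shaken at 37° C and the no-growth concentration taken as MIC.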

Moraxella catarrhalis = assay: MIC against Gram-negative bacteria: Moraxella catarrhalis; conditions: 5×10^5 CFU/mL
Summary of the method: as §1

Pseudomonas aeruginosa = assay: MIC against Gram-negative bacteria: Pseudomonas aeruginosa; conditions: 5×10^5 CFU/mL
Summary of the method: as §1

Proteus vulgaris = assay: MIC against Gram-negative bacteria: Proteus vulgaris; conditions: 5×10^5 CFU/mL
Summary of the method: as §1

Aeromonas hydrophila = assay: MIC against Gram-negative bacteria: Aeromonas hydrophila; conditions: 5×10^5 CFU/mL
Summary of the method: as §1

E. coli BL21 = assay: MIC against Gram-negative bacteria: E. coli BL21; conditions: 5×10^5 CFU/mL
Summary of the method: as §1

E. coli DH5α = assay: Antibacterial activity: MIC and growth curve against E. coli DH5α in 96-well plate; conditions: minimal inhibitory concentration against E. coli DH5α; 96-well plate, 5×10^5 CFU/mL, 37° C., judged after 8 h
Summary of the method: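 Log-phase DH5α (OD600 about 0.5, 37° C, 185 rpm in LB) was pelleted, resuspended in fresh LB and seeded at 5×10^5 CFU/mL with recombinant protein at 50, 25 and 12.5 μg/mL (two-fold series), in triplicate. Plates were shaken at 175 rpm, 37° C, and OD600 was read every 30 min. MIC was the lowest concentration with no growth.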

Citrobacter diversus = assay: MIC against Gram-negative bacteria: Citrobacter diversus; conditions: 5×10^5 CFU/mL
Summary of the method: as §1

Klebsiella pneumonia = assay: MIC against Gram-negative bacteria: Klebsiella pneumonia; conditions: 5×10^5 CFU/mL
Summary of the method: as §1

Proteus mirabilis = assay: MIC against Gram-negative bacteria: Proteus mirabilis; conditions: 5×10^5 CFU/mL
Summary of the method: as §1

Enterobacter cloacae = assay: MIC against Gram-negative bacteria: Enterobacter cloacae; conditions: 5×10^5 CFU/mL
Summary of the method: as §1

[1] = Serratia marcescens, 96-well plate, 37° C., 10 h
[2] = Moraxella catarrhalis, 96-well plate, 37° C., 10 h
[3] = Pseudomonas aeruginosa, 96-well plate, 37° C., 10 h
[4] = Proteus vulgaris, 96-well plate, 37° C., 10 h
[5] = Aeromonas hydrophila, 96-well plate, 37° C., 10 h
[6] = E. coli BL21, 96-well plate, 37° C., 10 h
[7] = Citrobacter diversus, 96-well plate, 37° C., 10 h
[8] = Klebsiella pneumonia, 96-well plate, 37° C., 10 h
[9] = Proteus mirabilis, 96-well plate, 37° C., 10 h
[10] = Enterobacter cloacae, 96-well plate, 37° C., 10 h
[11] = 10 h cultivation at 37° C., two-fold serial dilution

## PRT47 (CTCSGHANICHLHTGKCFCTTKGIKGDQCQLCDSENRYVGNPLRGTCYY; listed as Homo sapiens)
Serratia marcescens; [1]
  MIC (μg/mL) S. marcescens: 12.5 µg/mL
Moraxella catarrhalis; [2]
  MIC (μg/mL) M. catarrhalis: 12.5 µg/mL
Pseudomonas aeruginosa; [3]
  MIC (μg/mL) P. aeruginosa: 12.5 µg/mL
Proteus vulgaris; [4]
  MIC (μg/mL) P. vulgaris: 50 µg/mL
Aeromonas hydrophila; [5]
  MIC (μg/mL) A. hydrophila: 12.5 µg/mL
E. coli BL21; [6]
  MIC (μg/mL) E. coli BL21: 25 µg/mL
E. coli DH5α
  MIC: 12.5 µg/mL
Citrobacter diversus; [7]
  MIC (μg/mL) C. diversus: 50 µg/mL
Klebsiella pneumonia; [8]
  MIC (μg/mL) K. pneumonia: 12.5 µg/mL
Proteus mirabilis; [9]
  MIC (μg/mL) P. mirabilis: 25 µg/mL
Enterobacter cloacae; [10]
  MIC (μg/mL) E. cloacae: 25 µg/mL

## PRT81 (TCGPCNCDVSKGFDPDCNKTSGECHCKENHYRPPGSPTCL; listed as Homo sapiens)
Serratia marcescens; [1]
  MIC (μg/mL) S. marcescens: 50 µg/mL
Moraxella catarrhalis; [2]
  MIC (μg/mL) M. catarrhalis: 50 µg/mL
Pseudomonas aeruginosa; [3]
  MIC (μg/mL) P. aeruginosa: 12.5 µg/mL
Proteus vulgaris; [4]
  MIC (μg/mL) P. vulgaris: 25 µg/mL
Aeromonas hydrophila; [5]
  MIC (μg/mL) A. hydrophila: 25 µg/mL
E. coli BL21; [6]
  MIC (μg/mL) E. coli BL21: 12.5 µg/mL
E. coli DH5α
  MIC: 12.5 µg/mL
Citrobacter diversus; [7]
  MIC (μg/mL) C. diversus: 12.5 µg/mL
Klebsiella pneumonia; [8]
  MIC (μg/mL) K. pneumonia: 25 µg/mL
Proteus mirabilis; [9]
  MIC (μg/mL) P. mirabilis: 12.5 µg/mL
Enterobacter cloacae; [10]
  MIC (μg/mL) E. cloacae: 12.5 µg/mL

## PRT1076 (SCLTCVGHCSNGGSCTMNSKMMPECQCPPHMTGPRCE; listed as Homo sapiens)
Serratia marcescens; [11]
  MIC S. marcescens: 25 µg/mL
Moraxella catarrhalis; [11]
  MIC M. catarrhalis: 12.5 µg/mL
Pseudomonas aeruginosa; [11]
  MIC P. aeruginosa: 12.5 µg/mL
Proteus vulgaris; [11]
  MIC P. vulgaris: 12.5 µg/mL
Aeromonas hydrophila; [11]
  MIC A. hydrophila: 12.5 µg/mL
E. coli BL21; [11]
  MIC E. coli BL21: 25 µg/mL
E. coli DH5α
  MIC: 12.5 µg/mL
Citrobacter diversus; [11]
  MIC C. diversus: 12.5 µg/mL
Klebsiella pneumonia; [11]
  MIC K. pneumonia: 25 µg/mL
Proteus mirabilis; [11]
  MIC P. mirabilis: 25 µg/mL
Enterobacter cloacae; [11]
  MIC E. cloacae: 12.5 µg/mL

## PRT101 (DVDECSSGQHQCDSSTVCFNTVGSYSCRCRPGWKPRHGIPNNQKDTVCE; listed as Homo sapiens)
Serratia marcescens; [1]
  MIC (μg/mL) S. marcescens: 12.5 µg/mL
Moraxella catarrhalis; [2]
  MIC (μg/mL) M. catarrhalis: 50 µg/mL
Pseudomonas aeruginosa; [3]
  MIC (μg/mL) P. aeruginosa: 25 µg/mL
Proteus vulgaris; [4]
  MIC (μg/mL) P. vulgaris: 12.5 µg/mL
Aeromonas hydrophila; [5]
  MIC (μg/mL) A. hydrophila: 50 µg/mL
E. coli BL21; [6]
  MIC (μg/mL) E. coli BL21: 50 µg/mL
E. coli DH5α
  MIC: 25 µg/mL
Citrobacter diversus; [7]
  MIC (μg/mL) C. diversus: 50 µg/mL
Klebsiella pneumonia; [8]
  MIC (μg/mL) K. pneumonia: 50 µg/mL
Proteus mirabilis; [9]
  MIC (μg/mL) P. mirabilis: 12.5 µg/mL
Enterobacter cloacae; [10]
  MIC (μg/mL) E. cloacae: 25 µg/mL

## PRT488 (DRCQLQTRCQNGGQWDGLKCQCPSTFYGSSCE; listed as Homo sapiens)
Serratia marcescens; 96-well plate, 37° C., 10 h
  MIC against S. marcescens: 50 µg/mL
Moraxella catarrhalis; 96-well plate, 37° C., 10 h
  MIC against M. catarrhalis: 12.5 µg/mL
Pseudomonas aeruginosa; 96-well plate, 37° C., 10 h
  MIC against P. aeruginosa: 50 µg/mL
Proteus vulgaris; 96-well plate, 37° C., 10 h
  MIC against P. vulgaris: 12.5 µg/mL
Aeromonas hydrophila; 96-well plate, 37° C., 10 h
  MIC against A. hydrophila: 12.5 µg/mL
E. coli BL21; 96-well plate, 37° C., 10 h
  MIC against E. coli BL21: 12.5 µg/mL
E. coli DH5α
  MIC: 50 µg/mL
Citrobacter diversus; 96-well plate, 37° C., 10 h
  MIC against C. diversus: 50 µg/mL
Klebsiella pneumonia; 96-well plate, 37° C., 10 h
  MIC against K. pneumonia: 12.5 µg/mL
Proteus mirabilis; 96-well plate, 37° C., 10 h
  MIC against P. mirabilis: 50 µg/mL
Enterobacter cloacae; 96-well plate, 37° C., 10 h
  MIC against E. cloacae: 50 µg/mL

## PRT1439 (EEDECAKPDRGGCEQRCLNTLGSYQCACEPGYELGPDRRSCE; listed as Homo sapiens)
Serratia marcescens; Serratia marcescens, 10 h cultivation at 37° C.
  MIC against S. marcescens: 50 µg/mL
Moraxella catarrhalis; Moraxella catarrhalis, 10 h cultivation at 37° C.
  MIC against M. catarrhalis: 12.5 µg/mL
Pseudomonas aeruginosa; Pseudomonas aeruginosa, 10 h cultivation at 37° C.
  MIC against P. aeruginosa: 50 µg/mL
Proteus vulgaris; Proteus vulgaris, 10 h cultivation at 37° C.
  MIC against P. vulgaris: 12.5 µg/mL
Aeromonas hydrophila; Aeromonas hydrophila, 10 h cultivation at 37° C.
  MIC against A. hydrophila: 12.5 µg/mL
E. coli BL21; E. coli BL21, 10 h cultivation at 37° C.
  MIC against E. coli BL21: 12.5 µg/mL
E. coli DH5α
  MIC: 50 µg/mL
Citrobacter diversus; Citrobacter diversus, 10 h cultivation at 37° C.
  MIC against C. diversus: 50 µg/mL
Klebsiella pneumonia; Klebsiella pneumonia, 10 h cultivation at 37° C.
  MIC against K. pneumonia: 12.5 µg/mL
Proteus mirabilis; Proteus mirabilis, 10 h cultivation at 37° C.
  MIC against P. mirabilis: 50 µg/mL
Enterobacter cloacae; Enterobacter cloacae, 10 h cultivation at 37° C.
  MIC against E. cloacae: 50 µg/mL

## PRT1300 (VIDHCVPELNLCQHEAKCIPLDKGFSCECVPGYSGKLCE; listed as Homo sapiens)
Serratia marcescens; [1]
  MIC against S. marcescens: 12.5 µg/mL
Moraxella catarrhalis; [2]
  MIC against M. catarrhalis: 12.5 µg/mL
Pseudomonas aeruginosa; [3]
  MIC against P. aeruginosa: 25 µg/mL
Proteus vulgaris; [4]
  MIC against P. vulgaris: 12.5 µg/mL
Aeromonas hydrophila; [5]
  MIC against A. hydrophila: 50 µg/mL
E. coli BL21; [6]
  MIC against E. coli BL21: 50 µg/mL
E. coli DH5α
  MIC: 12.5 µg/mL
Citrobacter diversus; [7]
  MIC against C. diversus: 12.5 µg/mL
Klebsiella pneumonia; [8]
  MIC against K. pneumonia: 12.5 µg/mL
Proteus mirabilis; [9]
  MIC against P. mirabilis: 12.5 µg/mL
Enterobacter cloacae; [10]
  MIC against E. cloacae: 25 µg/mL
